# Experimental data from article PMC10716780, “The multistep oxidation of cholesterol to pregnenolone by human cytochrome P450 11A1 is highly processive” (The Journal of Biological Chemistry, 2023).
# Where “and” joins values, the source holds several entries; their conditions need not be identical. Equal entries are not always repeated.
# Target: T1, human P450 11A1 (Homo sapiens, UniProt P05108)
# T1 sequence (P05108 41-521 limits assumed): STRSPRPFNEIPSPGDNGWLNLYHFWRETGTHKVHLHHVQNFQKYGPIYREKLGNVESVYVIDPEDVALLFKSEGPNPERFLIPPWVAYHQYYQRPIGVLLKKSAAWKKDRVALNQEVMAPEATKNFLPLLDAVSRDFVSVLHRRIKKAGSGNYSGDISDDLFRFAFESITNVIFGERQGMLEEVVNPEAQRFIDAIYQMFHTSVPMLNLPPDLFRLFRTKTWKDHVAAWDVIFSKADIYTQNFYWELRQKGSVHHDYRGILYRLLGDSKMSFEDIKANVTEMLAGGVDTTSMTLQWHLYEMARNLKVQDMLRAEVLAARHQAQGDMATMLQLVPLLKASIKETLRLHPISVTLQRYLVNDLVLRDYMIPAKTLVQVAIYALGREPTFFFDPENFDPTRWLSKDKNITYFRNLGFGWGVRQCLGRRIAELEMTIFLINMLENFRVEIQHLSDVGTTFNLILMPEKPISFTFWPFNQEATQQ
# T1 sequence (P00257 59-186 partner): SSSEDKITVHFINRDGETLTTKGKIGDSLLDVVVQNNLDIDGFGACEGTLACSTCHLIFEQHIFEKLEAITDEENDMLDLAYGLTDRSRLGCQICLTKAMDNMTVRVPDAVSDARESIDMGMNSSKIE
# Experiment: Steady-state conversion of sterols to pregnenolone by reconstituted P450 11A1 (UPLC-MS of dansyl hydrazone)
# Assay type: biochemical
# Set-up: M A S T R S P R P F N E I P S P G D N; Met-Ala (N-terminal start residues in place of the transit peptide and Ile40) (N); made in house; host or cells: E. coli (P450 11A1 in C41(DE3); Adx and AdR in E. coli)
# Settings: for rate of pregnenolone formation: duplicate, raw data of Fig. 5
# Experimental: Accordingly, all steady-state assays were done, unless otherwise noted, with a P450 11A1:Adx:AdR molar ratio of 1:40:2 (Fig. 2, that is, 0.25 μM P450, 10 μM Adx, and 0.5 μM AdR), in the absence of added lipid or detergent, and with the addition of sterol substrates in HPCD (stock 45% w/v).
# As mentioned in the Introduction, many types of assays have been used to monitor the steady-state conversion of cholesterol to pregnenolone ([12], [14], [15], [16], [17], [18], [19], [20], [21]). A reliable and sensitive method was required that could be used for presteady-state reactions and was not reliant on the presence of isotope in cholesterol, in that, we also worked with 22R-OH cholesterol and 20R,22R-(OH)2 cholesterol as substrates. We utilized a method based on our work with P450 17A1 ([41], [42]), in which we derivatized the product pregnenolone as its dansyl hydrazone and separated it by ultra-performance liquid chromatography (UPLC) with detection by positive ion electrospray mass spectrometry (MS). The steroid dehydroepiandosterone (DHEA) was used an internal standard.
# Reactions were performed by reconstituting P450 (0.25 μM), AdR (0.5 μM), and Adx (10 μM) on ice for 10 min prior to dilution in potassium Hepes buffer (50 mM, pH 7.4) and H2O and the addition of substrate (sterol, in HPCD (45% w/v)). Sterol dilutions were performed in HPCD to ensure that the HPCD composition was equal throughout all incubations (final 4.5% w/v). The reaction mixture was split between vials (425 μl in each), and reactions were preincubated (37 °C, 5 min) prior to initiation (75 μl) with an NADPH-generating system (0.5 mM NADP^+, 10 mM glucose 6-phosphate, and 2 μg ml^−1 glucose 6-phosphate dehydrogenase) ([61]). Reactions (5 min) were terminated by extraction into CH2Cl2 (2 ml) and transferred to an ice bath. After the experiment was complete, the quenched reactions were subjected to centrifugation (10^3g, 5 min, 23 °C) to separate layers, the organic (bottom) layer of each sample was removed (1.6 ml) to fresh glass vials, and the samples were brought to dryness under a stream of nitrogen.
# Steroid extracts were subsequently derivatized with dansylhydrazine and analyzed as described previously ([42]). Briefly, the dried residue was resuspended (200 μl) in C2H5OH (fortified with 0.1% v/v CF3CO2H, as the derivatization reaction is H^+-catalyzed) and mixed with a vortex device. Samples were transferred to 1.5 ml amber glass vials, solutions of dansylhydrazine (10 mM) and DHEA, 10 μM, as internal standard) were added, and vials were capped, mixed with a vortex device, and incubated in the dark overnight (∼16 h, 23 °C). The derivatization reaction was quenched with acetone […], briefly incubated in the dark (∼30 min, 23 °C), and was then neutralized with base (250 μl of 0.5 M NaOH) and extracted into CH2Cl2 (1 ml). The samples were mixed with a vortex device and the organic (bottom) layer was removed (0.8 ml) to clean amber vials. Solvent was again removed under nitrogen, and the dried residue was dissolved in a mobile phase (100 μl) of 0.1% CF3CO2H in aqueous CH3CN (50%, v/v) for analysis.
# Samples were injected (10 μl, held at 25 °C) on a 2.1 mm × 50 mm (1.7 μm) Acquity BEH octadecylsilane (C18) column (held at 40 °C) using a Waters Acquity UPLC with a flow rate of 0.2 ml min^−1 and a gradient mobile phase of (A) 0.1% aqueous HCO2H and (B) CH3CN as follows (all %B, v/v): 0 min, 40%; 0.5 min, 40%; 8 min, 100%; 8.5 min, 95%; 9 min, 100%; 9.1 min, 40%; and 10 min, 40%.
# [1] = 0.25 μM P450, 0.5 μM AdR, 10 μM Adx, 37 °C
smiles,measurement,setting,value
CC(C)CCC[C@@H](C)[C@H]1CC[C@H]2[C@@H]3CC=C4C[C@@H](O)CC[C@]4(C)[C@H]3CC[C@]12C [Cholesterol],Km,[1],38 ± 6 µM
same,kcat,[1],0.115 ± 0.0083 s⁻¹
same,kcat (conversion of sterol to pregnenolone),[1],0.12 ± 0.01 s⁻¹
same,kcat (conversion of sterol to pregnenolone),"0.25 μM P450, 0.5 μM AdR, 10 μM Adx, 37 °C, listed as cholesterol",0.12 s⁻¹
same,kcat for conversion to pregnenolone,40-fold excess Adx,6.9 nmol product formed min^−1 (nmol P450)^−1
same,rate of pregnenolone formation,substrate 7.5 µM,1.32 min⁻¹ and 1.18 min⁻¹
same,rate of pregnenolone formation,substrate 15 µM,1.88 min⁻¹ and 1.72 min⁻¹
same,rate of pregnenolone formation,substrate 20 µM,2.38 min⁻¹ and 2.20 min⁻¹
same,rate of pregnenolone formation,substrate 30 µM,2.47 min⁻¹ and 2.46 min⁻¹
same,rate of pregnenolone formation,substrate 40 µM,3.96 min⁻¹ and 3.88 min⁻¹
same,rate of pregnenolone formation,substrate 50 µM,4.06 min⁻¹ and 4.00 min⁻¹
same,rate of pregnenolone formation,substrate 75 µM,4.99 min⁻¹ and 4.93 min⁻¹
same,rate of pregnenolone formation,substrate 100 µM,5.93 min⁻¹ and 4.92 min⁻¹
same,rate of pregnenolone formation,substrate 150 µM,4.83 min⁻¹ and 5.08 min⁻¹
